These are literature values, as cited in US20120022018A1, “ANTI-VIRAL PROPERTIES OF ALOE VERA AND ACQUIRED IMMUNE DEFICIENCY SYNDROME (AIDS) TREATMENT” (NORTH TEXAS MEDICAL ASSOCIATES, priority 2010, published 2012).

For data set [1], the system named is New Castle and paramyxoviruses. As to conditions: New Castle and paramyxoviruses in culture; altered envelope glycoproteins.
In data set [2] the test system is HIV-1 envelope glycoprotein. As to conditions: HIV-1 infected monocytes cultures; instead of usual GP-160, GP-120, GP-41 bands.
Data set [3] relates to monocytic/macrophagic (M/M) cell counts. The settings on record: in vivo.

With Acemannan, the “effect on infectivity of virions” value in data set [1] is recorded as “rendered the virions incapable of infecting susceptible target cell lines as well as animals”. For the same substance, the “effect on HIV-1 envelope glycoprotein” value in data set [2] was “induced the production of multiple molecular weights of HIV-1 envelope glycoprotein”. In addition, in data set [3], the “monocytic/macrophagic (M/M) cell counts” value is “increase”.
